# Assay results from PubChem BioAssay (NCI).
#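 How tested: cells in 96-well plates exposed to compound for 48 hours at five concentrations. At the TGI there is no net growth.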
# How the values were obtained:
# Assay in all cases: growth of human tumour cells (NCI), 48 h
# NCI-H226 lung = test system: NCI-H226 lung
# OVCAR-3 ovarian = test system: OVCAR-3 ovarian
# SF-539 CNS = test system: SF-539 CNS
# MDA-MB-435 = test system: MDA-MB-435
# SW-620 colon = test system: SW-620 colon
# HOP-62 NSCLC = test system: HOP-62 NSCLC
# UACC-257 melanoma = test system: UACC-257 melanoma
# SNB-75 CNS = test system: SNB-75 CNS
# PC-3 prostate = test system: PC-3 prostate
# MALME-3M melanoma = test system: MALME-3M melanoma
# HCC-2998 colon = test system: HCC-2998 colon
# LOX IMVI melanoma = test system: LOX IMVI melanoma
# MOLT-4 leukemia = test system: MOLT-4 leukemia
# ACHN renal = test system: ACHN renal
# IGROV1 ovarian = test system: IGROV1 ovarian
# SF-295 CNS = test system: SF-295 CNS
# HT29 colon = test system: HT29 colon
# NCI-H522 lung = test system: NCI-H522 lung
# SK-OV-3 ovarian = test system: SK-OV-3 ovarian
# UACC-62 melanoma = test system: UACC-62 melanoma
# OVCAR-8 ovarian = test system: OVCAR-8 ovarian
# SN12C renal = test system: SN12C renal
# K-562 leukemia = test system: K-562 leukemia
# SF-268 CNS = test system: SF-268 CNS
# UO-31 renal = test system: UO-31 renal
# OVCAR-4 ovarian = test system: OVCAR-4 ovarian
# U251 CNS = test system: U251 CNS
# NCI-H23 lung = test system: NCI-H23 lung
# NCI-H460 lung = test system: NCI-H460 lung
# HS 578T breast = test system: HS 578T breast
# CAKI-1 renal = test system: CAKI-1 renal
# MDA-MB-231 breast = test system: MDA-MB-231 breast
# M14 melanoma = test system: M14 melanoma
# SK-MEL-2 melanoma = test system: SK-MEL-2 melanoma
# NCI/ADR-RES ovarian = test system: NCI/ADR-RES ovarian
# HCT-116 colon = test system: HCT-116 colon
# HOP-92 NSCLC = test system: HOP-92 NSCLC
# KM12 colon = test system: KM12 colon
# SR leukemia = test system: SR leukemia
# RXF 393 renal = test system: RXF 393 renal
# MDA-N = test system: MDA-N
# A498 renal = test system: A498 renal
# SNB-19 CNS = test system: SNB-19 CNS
# DU-145 prostate = test system: DU-145 prostate
# COLO 205 colon = test system: COLO 205 colon
# TK-10 renal = test system: TK-10 renal
# SK-MEL-5 melanoma = test system: SK-MEL-5 melanoma
# MCF7 breast = test system: MCF7 breast
# 786-0 renal = test system: 786-0 renal
# SK-MEL-28 melanoma = test system: SK-MEL-28 melanoma
# HCT-15 colon = test system: HCT-15 colon
# BT-549 breast = test system: BT-549 breast
# OVCAR-5 ovarian = test system: OVCAR-5 ovarian
# CCRF-CEM leukemia = test system: CCRF-CEM leukemia
# HL-60(TB) leukemia = test system: HL-60(TB) leukemia
# RPMI-8226 leukemia = test system: RPMI-8226 leukemia
# A549 NSCLC = test system: A549 NSCLC
# EKVX NSCLC = test system: EKVX NSCLC
structure (smiles),measurement,setting,value
COc1c(C)c(OC)c2c(c1O)[C@@H]1[C@@H]3Cc4c(OC)c(C)c(OC)c(O)c4[C@H](CNC(=O)c4ccc5ccccc5n4)N3[C@@H](C#N)[C@H](C2)N1C,TGI,NCI-H226 lung,0.00571 µM
same,TGI,OVCAR-3 ovarian,0.0023 µM
same,TGI,SF-539 CNS,0.00774 µM
same,TGI,MDA-MB-435,0.00438 µM
same,TGI,SW-620 colon,0.00251 µM
same,TGI,HOP-62 NSCLC,0.0104 µM
same,TGI,UACC-257 melanoma,0.00546 µM
same,TGI,SNB-75 CNS,0.0143 µM
same,TGI,PC-3 prostate,> 0.0514 µM
same,TGI,MALME-3M melanoma,0.000743 µM
same,TGI,HCC-2998 colon,0.0007 µM
same,TGI,LOX IMVI melanoma,> 0.1 µM
same,TGI,MOLT-4 leukemia,0.0144 µM
same,TGI,ACHN renal,> 0.1 µM
same,TGI,IGROV1 ovarian,0.000858 µM
same,TGI,SF-295 CNS,> 0.0214 µM
same,TGI,HT29 colon,0.00491 µM
same,TGI,NCI-H522 lung,0.000444 µM
same,TGI,SK-OV-3 ovarian,> 0.1 µM
same,TGI,UACC-62 melanoma,0.00236 µM
same,TGI,OVCAR-8 ovarian,> 0.1 µM
same,TGI,SN12C renal,> 0.1 µM
same,TGI,K-562 leukemia,> 0.1 µM
same,TGI,SF-268 CNS,0.0305 µM
same,TGI,UO-31 renal,0.00879 µM
same,TGI,OVCAR-4 ovarian,0.00742 µM
same,TGI,U251 CNS,> 0.1 µM
same,TGI,NCI-H23 lung,0.00187 µM
same,TGI,NCI-H460 lung,> 0.0901 µM
same,TGI,HS 578T breast,0.00741 µM
same,TGI,CAKI-1 renal,0.0384 µM
same,TGI,MDA-MB-231 breast,> 0.0276 µM
same,TGI,M14 melanoma,0.00267 µM
same,TGI,SK-MEL-2 melanoma,0.000832 µM
same,TGI,NCI/ADR-RES ovarian,> 0.052 µM
same,TGI,HCT-116 colon,0.00585 µM
same,TGI,HOP-92 NSCLC,0.00322 µM
same,TGI,KM12 colon,0.00227 µM
same,TGI,SR leukemia,0.000329 µM
same,TGI,RXF 393 renal,0.00347 µM
same,TGI,MDA-N,0.00283 µM
same,TGI,A498 renal,0.00411 µM
same,TGI,SNB-19 CNS,> 0.1 µM
same,TGI,DU-145 prostate,> 0.0296 µM
same,TGI,COLO 205 colon,> 0.1 µM
same,TGI,TK-10 renal,0.0023 µM
same,TGI,SK-MEL-5 melanoma,0.00186 µM
same,TGI,MCF7 breast,> 0.1 µM
same,TGI,786-0 renal,0.00791 µM
same,TGI,SK-MEL-28 melanoma,0.00592 µM
same,TGI,HCT-15 colon,> 0.0597 µM
same,TGI,BT-549 breast,0.00172 µM
same,TGI,OVCAR-5 ovarian,0.00353 µM
C=CCCC(CCC=C)(C(=O)O)C(=O)O,TGI,CCRF-CEM leukemia,> 100 µM
same,TGI,OVCAR-3 ovarian,> 100 µM
same,TGI,SF-539 CNS,> 100 µM
same,TGI,MDA-MB-435,> 100 µM
same,TGI,SW-620 colon,> 100 µM
same,TGI,HOP-62 NSCLC,> 100 µM
same,TGI,UACC-257 melanoma,> 100 µM
same,TGI,SNB-75 CNS,> 100 µM
same,TGI,PC-3 prostate,> 100 µM
same,TGI,MALME-3M melanoma,> 100 µM
same,TGI,HCC-2998 colon,> 100 µM
same,TGI,LOX IMVI melanoma,> 100 µM
same,TGI,HL-60(TB) leukemia,> 100 µM
same,TGI,MOLT-4 leukemia,> 100 µM
same,TGI,ACHN renal,> 100 µM
same,TGI,IGROV1 ovarian,> 100 µM
same,TGI,SF-295 CNS,> 100 µM
same,TGI,HT29 colon,> 100 µM
same,TGI,NCI-H522 lung,> 100 µM
same,TGI,UACC-62 melanoma,> 100 µM
same,TGI,OVCAR-8 ovarian,> 100 µM
same,TGI,SN12C renal,> 100 µM
same,TGI,K-562 leukemia,> 100 µM
same,TGI,SF-268 CNS,> 100 µM
same,TGI,UO-31 renal,> 100 µM
same,TGI,U251 CNS,> 100 µM
same,TGI,RPMI-8226 leukemia,> 100 µM
same,TGI,NCI-H23 lung,> 100 µM
same,TGI,NCI-H460 lung,> 100 µM
same,TGI,A549 NSCLC,> 100 µM
same,TGI,HS 578T breast,> 100 µM
same,TGI,MDA-MB-231 breast,> 100 µM
same,TGI,M14 melanoma,> 100 µM
same,TGI,SK-MEL-2 melanoma,> 100 µM
same,TGI,NCI/ADR-RES ovarian,> 100 µM
same,TGI,HCT-116 colon,> 100 µM
same,TGI,KM12 colon,> 100 µM
same,TGI,SR leukemia,> 100 µM
same,TGI,RXF 393 renal,> 100 µM
same,TGI,MDA-N,> 100 µM
same,TGI,SNB-19 CNS,> 100 µM
same,TGI,DU-145 prostate,> 100 µM
same,TGI,COLO 205 colon,> 100 µM
same,TGI,TK-10 renal,> 100 µM
same,TGI,EKVX NSCLC,> 100 µM
same,TGI,SK-MEL-5 melanoma,> 100 µM
same,TGI,MCF7 breast,> 100 µM
same,TGI,786-0 renal,> 100 µM
same,TGI,SK-MEL-28 melanoma,> 100 µM
same,TGI,HCT-15 colon,> 100 µM
same,TGI,BT-549 breast,> 100 µM
same,TGI,OVCAR-5 ovarian,> 100 µM
